{"source": "patent US20260285850A1", "about": "“SUBSTITUTED OXAZOLIDINONES AND IMIDAZOLINONES AS HERBICIDES” (FMC CORPORATION, priority 2023, published 2026)", "type_in_all_cases": "in vivo", "key": {"[1]": {"system": "palmer (palmer amaranth, palmer pigweed, Amaranthus palmeri)", "assay": "Test A postemergence application, visual injury rating 0-100", "details": "Postemergence, 10 days, 0 is no effect, 100 is complete control", "summary_of_the_method": "(§1)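 Scale 0–100 (no effect to complete control), visual, versus untreated controls, read 10 days after application. Application: preemergence directed spray onto seeded loam–sand soil, or postemergence to young plants; formulation in non-phytotoxic solvent with surfactant.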"}, "kochia (Bassia scoparia) [2]": {"system": "kochia (Bassia scoparia)", "assay": "Test A postemergence application, visual injury rating 0-100", "details": "Postemergence, 10 days, 0 is no effect, 100 is complete control", "summary_of_the_method": "as §1"}, "[3]": {"system": "green foxtail (Setaria viridis)", "assay": "Test A postemergence application, visual injury rating 0-100", "details": "Postemergence, 10 days, 0 is no effect, 100 is complete control", "summary_of_the_method": "as §1"}, "[4]": {"system": "wheat (Triticum aestivum)", "assay": "Test A postemergence application, visual injury rating 0-100", "details": "Postemergence, 10 days, 0 is no effect, 100 is complete control", "summary_of_the_method": "as §1"}, "[5]": {"system": "ryegrass, Italian (italian ryegrass, Lolium multiflorum)", "assay": "Test A postemergence application, visual injury rating 0-100", "details": "Postemergence, 10 days, 0 is no effect, 100 is complete control", "summary_of_the_method": "as §1"}, "corn (Zea mays) [6]": {"system": "corn (Zea mays)", "assay": "Test A postemergence application, visual injury rating 0-100", "details": "Postemergence, 10 days, 0 is no effect, 100 is complete control", "summary_of_the_method": "as §1"}, "[7]": {"system": "barnyardgrass (Echinochloa crus-galli)", "assay": "Test A postemergence application, visual injury rating 0-100", "details": "Postemergence, 10 days, 0 is no effect, 100 is complete control", "summary_of_the_method": "as §1"}, "[8]": {"system": "ragweed (common ragweed, Ambrosia artemisiifolia)", "assay": "Test A postemergence application, visual injury rating 0-100", "details": "Postemergence, 10 days, 0 is no effect, 100 is complete control", "summary_of_the_method": "as §1"}, "[9]": {"system": "horseweed (Erigeron canadensis)", "assay": "Test A postemergence application, visual injury rating 0-100", "details": "Postemergence, 10 days, 0 is no effect, 100 is complete control", "summary_of_the_method": "as §1"}, "soybean (Glycine max) [10]": {"system": "soybean (Glycine max)", "assay": "Test A postemergence application, visual injury rating 0-100", "details": "Postemergence, 10 days, 0 is no effect, 100 is complete control", "summary_of_the_method": "as §1"}, "[11]": {"system": "galium (catchweed bedstraw, Galium aparine)", "assay": "Test A postemergence application, visual injury rating 0-100", "details": "Postemergence, 10 days, 0 is no effect, 100 is complete control", "summary_of_the_method": "as §1"}, "[12]": {"system": "blackgrass (Alopecurus myosuroides)", "assay": "Test A postemergence application, visual injury rating 0-100", "details": "Postemergence, 10 days, 0 is no effect, 100 is complete control", "summary_of_the_method": "as §1"}, "[13]": {"system": "oat, wild (wild oat, Avena fatua)", "assay": "Test A postemergence application, visual injury rating 0-100", "details": "Postemergence, 10 days, 0 is no effect, 100 is complete control", "summary_of_the_method": "as §1"}, "[14]": {"system": "ducksalad (Heteranthera limosa)", "assay": "Test B flooded paddy test, visual plant response rating 0-100", "details": "250 g ai/ha, Flood, applied to paddy water, evaluated after 13 days", "summary_of_the_method": "(§2)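 Each species was raised to two leaves before flooding to a 3 cm depth and dosing the water with compound. Injury was assessed by eye after 13 days under greenhouse conditions.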"}, "[15]": {"system": "sedge, umbrella (small-flower umbrella sedge, Cyperus difformis)", "assay": "Test B flooded paddy test, visual plant response rating 0-100", "details": "250 g ai/ha, Flood, applied to paddy water, evaluated after 13 days", "summary_of_the_method": "as §2"}, "[16]": {"system": "barnyardgrass (Echinochloa crusgalli)", "assay": "Test B flooded paddy test, visual plant response rating 0-100", "details": "250 g ai/ha, Flood, applied to paddy water, evaluated after 13 days", "summary_of_the_method": "as §2"}, "rice (Oryza sativa)": {"system": "rice (Oryza sativa)", "assay": "Test B flooded paddy test, visual plant response rating 0-100", "details": "250 g ai/ha, Flood, applied to paddy water, evaluated after 13 days", "summary_of_the_method": "as §2"}, "[17]": {"system": "palmer (palmer amaranth, palmer pigweed, Amaranthus palmeri)", "assay": "Test A preemergence soil spray, visual injury rating 0-100", "details": "10 days, 0 = no effect, 100 = complete control", "summary_of_the_method": "as §1"}, "kochia (Bassia scoparia) [18]": {"system": "kochia (Bassia scoparia)", "assay": "Test A preemergence soil spray, visual injury rating 0-100", "details": "10 days, 0 = no effect, 100 = complete control", "summary_of_the_method": "as §1"}, "[19]": {"system": "green foxtail (Setaria viridis)", "assay": "Test A preemergence soil spray, visual injury rating 0-100", "details": "10 days, 0 = no effect, 100 = complete control", "summary_of_the_method": "as §1"}, "[20]": {"system": "wheat (Triticum aestivum)", "assay": "Test A preemergence soil spray, visual injury rating 0-100", "details": "10 days, 0 = no effect, 100 = complete control", "summary_of_the_method": "as §1"}, "[21]": {"system": "ryegrass, Italian (italian ryegrass, Lolium multiflorum)", "assay": "Test A preemergence soil spray, visual injury rating 0-100", "details": "10 days, 0 = no effect, 100 = complete control", "summary_of_the_method": "as §1"}, "corn (Zea mays) [22]": {"system": "corn (Zea mays)", "assay": "Test A preemergence soil spray, visual injury rating 0-100", "details": "10 days, 0 = no effect, 100 = complete control", "summary_of_the_method": "as §1"}, "[23]": {"system": "barnyardgrass (Echinochloa crus-galli)", "assay": "Test A preemergence soil spray, visual injury rating 0-100", "details": "10 days, 0 = no effect, 100 = complete control", "summary_of_the_method": "as §1"}, "soybean (Glycine max) [24]": {"system": "soybean (Glycine max)", "assay": "Test A preemergence soil spray, visual injury rating 0-100", "details": "10 days, 0 = no effect, 100 = complete control", "summary_of_the_method": "as §1"}, "[25]": {"system": "blackgrass (Alopecurus myosuroides)", "assay": "Test A preemergence soil spray, visual injury rating 0-100", "details": "10 days, 0 = no effect, 100 = complete control", "summary_of_the_method": "as §1"}, "[26]": {"system": "oat, wild (wild oat, Avena fatua)", "assay": "Test A preemergence soil spray, visual injury rating 0-100", "details": "10 days, 0 = no effect, 100 = complete control", "summary_of_the_method": "as §1"}}}
{"smiles": "CC1(C(=O)NC2C=CC(C(=O)OCC#N)C2)CN(c2cc(F)cc(F)c2)C(=O)O1", "note": "(centres unmarked) [Compound 35]", "values": [{"measurement": "Amaranth, Palmer / Pigweed, Palmer plant response rating (0 to 100 scale)", "setting": "[1]; 125 g ai/ha", "result": 80}, {"measurement": "Amaranth, Palmer / Pigweed, Palmer plant response rating (0 to 100 scale)", "setting": "[1]; 500 g ai/ha", "result": 100}, {"measurement": "Kochia plant response rating (0 to 100 scale)", "setting": "kochia (Bassia scoparia) [2]; 125 g ai/ha", "result": 70}, {"measurement": "Kochia plant response rating (0 to 100 scale)", "setting": "kochia (Bassia scoparia) [2]; 500 g ai/ha", "result": 70}, {"measurement": "Foxtail, Green plant response rating (0 to 100 scale)", "setting": "[3]; 125 g ai/ha", "result": 90}, {"measurement": "Foxtail, Green plant response rating (0 to 100 scale)", "setting": "[3]; 500 g ai/ha", "result": 90}, {"measurement": "Wheat plant response rating (0 to 100 scale)", "setting": "[4]; 125 g ai/ha", "result": 70}, {"measurement": "Wheat plant response rating (0 to 100 scale)", "setting": "[4]; 500 g ai/ha", "result": 80}, {"measurement": "Ryegrass, Italian plant response rating (0 to 100 scale)", "setting": "[5]; 125 g ai/ha", "result": 90}, {"measurement": "Ryegrass, Italian plant response rating (0 to 100 scale)", "setting": "[5]; 500 g ai/ha", "result": 90}, {"measurement": "Corn plant response rating (0 to 100 scale)", "setting": "corn (Zea mays) [6]; 125 g ai/ha", "result": 100}, {"measurement": "Corn plant response rating (0 to 100 scale)", "setting": "corn (Zea mays) [6]; 500 g ai/ha", "result": 100}, {"measurement": "Barnyardgrass plant response rating (0 to 100 scale)", "setting": "[7]; 125 g ai/ha", "result": 100}, {"measurement": "Barnyardgrass plant response rating (0 to 100 scale)", "setting": "[7]; 500 g ai/ha", "result": 100}, {"measurement": "Ragweed plant response rating (0 to 100 scale)", "setting": "[8]; 125 g ai/ha", "result": 70}, {"measurement": "Ragweed plant response rating (0 to 100 scale)", "setting": "[8]; 500 g ai/ha", "result": 80}, {"measurement": "Horseweed plant response rating (0 to 100 scale)", "setting": "[9]; 125 g ai/ha", "result": 80}, {"measurement": "Horseweed plant response rating (0 to 100 scale)", "setting": "[9]; 500 g ai/ha", "result": 90}, {"measurement": "Soybean plant response rating (0 to 100 scale)", "setting": "soybean (Glycine max) [10]; 125 g ai/ha", "result": 70}, {"measurement": "Soybean plant response rating (0 to 100 scale)", "setting": "soybean (Glycine max) [10]; 500 g ai/ha", "result": 90}, {"measurement": "Galium plant response rating (0 to 100 scale)", "setting": "[11]; 125 g ai/ha", "result": 80}, {"measurement": "Galium plant response rating (0 to 100 scale)", "setting": "[11]; 500 g ai/ha", "result": 80}, {"measurement": "Blackgrass plant response rating (0 to 100 scale)", "setting": "[12]; 125 g ai/ha", "result": 90}, {"measurement": "Blackgrass plant response rating (0 to 100 scale)", "setting": "[12]; 500 g ai/ha", "result": 100}, {"measurement": "Oat, Wild plant response rating (0 to 100 scale)", "setting": "[13]; 125 g ai/ha", "result": 100}, {"measurement": "Oat, Wild plant response rating (0 to 100 scale)", "setting": "[13]; 500 g ai/ha", "result": 100}, {"measurement": "Plant response rating, Ducksalad (0 to 100 scale, 0 is no effect and 100 is complete control)", "setting": "[14]", "result": 90}, {"measurement": "Plant response rating, Sedge, Umbrella (0 to 100 scale, 0 is no effect and 100 is complete control)", "setting": "[15]", "result": 90}, {"measurement": "Plant response rating, Barnyardgrass (0 to 100 scale, 0 is no effect and 100 is complete control)", "setting": "[16]", "result": 95}, {"measurement": "Plant response rating, Rice (0 to 100 scale, 0 is no effect and 100 is complete control)", "setting": "rice (Oryza sativa)", "result": 50}, {"measurement": "Amaranth, Palmer plant response rating (0 to 100 scale)", "setting": "[17]; 125 g ai/ha", "result": 100}, {"measurement": "Amaranth, Palmer plant response rating (0 to 100 scale)", "setting": "[17]; 500 g ai/ha", "result": 100}, {"measurement": "Kochia plant response rating (0 to 100 scale)", "setting": "kochia (Bassia scoparia) [18]; 125 g ai/ha", "result": 90}, {"measurement": "Kochia plant response rating (0 to 100 scale)", "setting": "kochia (Bassia scoparia) [18]; 500 g ai/ha", "result": 90}, {"measurement": "Foxtail, Green plant response rating (0 to 100 scale)", "setting": "[19]; 125 g ai/ha", "result": 90}, {"measurement": "Foxtail, Green plant response rating (0 to 100 scale)", "setting": "[19]; 500 g ai/ha", "result": 100}, {"measurement": "Wheat plant response rating (0 to 100 scale)", "setting": "[20]; 125 g ai/ha", "result": 90}, {"measurement": "Wheat plant response rating (0 to 100 scale)", "setting": "[20]; 500 g ai/ha", "result": 100}, {"measurement": "Ryegrass, Italian plant response rating (0 to 100 scale)", "setting": "[21]; 125 g ai/ha", "result": 100}, {"measurement": "Ryegrass, Italian plant response rating (0 to 100 scale)", "setting": "[21]; 500 g ai/ha", "result": 100}, {"measurement": "Corn plant response rating (0 to 100 scale)", "setting": "corn (Zea mays) [22]; 125 g ai/ha", "result": 90}, {"measurement": "Corn plant response rating (0 to 100 scale)", "setting": "corn (Zea mays) [22]; 500 g ai/ha", "result": 100}, {"measurement": "Barnyardgrass plant response rating (0 to 100 scale)", "setting": "[23]; 125 g ai/ha", "result": 100}, {"measurement": "Barnyardgrass plant response rating (0 to 100 scale)", "setting": "[23]; 500 g ai/ha", "result": 100}, {"measurement": "Soybean plant response rating (0 to 100 scale)", "setting": "soybean (Glycine max) [24]; 125 g ai/ha", "result": 80}, {"measurement": "Soybean plant response rating (0 to 100 scale)", "setting": "soybean (Glycine max) [24]; 500 g ai/ha", "result": 90}, {"measurement": "Blackgrass plant response rating (0 to 100 scale)", "setting": "[25]; 125 g ai/ha", "result": 70}, {"measurement": "Blackgrass plant response rating (0 to 100 scale)", "setting": "[25]; 500 g ai/ha", "result": 90}, {"measurement": "Oat, Wild plant response rating (0 to 100 scale)", "setting": "[26]; 125 g ai/ha", "result": 90}, {"measurement": "Oat, Wild plant response rating (0 to 100 scale)", "setting": "[26]; 500 g ai/ha", "result": 90}]}
